The results in this text go back to ChEMBL document CHEMBL1135700, “Design, synthesis and activity of ascorbic acid prodrugs of nipecotic, kynurenic and diclophenamic acids, liable to increase neurotropic activity” (2002).

Series [1] concerns the target Solute carrier family 23 member 2 (Homo sapiens) (UniProt Q9UGH3). Conditions: 6 uM.
Description: [14C]- AA uptake mediated by sodium-dependent ascorbate transporters, SVCT2 measured as Michaelis-Menten constant (Kt) at a concentration of 6 uM
Series [2] has the same target. Conditions: 24 uM.
Description: [14C]- AA uptake mediated by sodium-dependent ascorbate transporters, SVCT2 measured as Michaelis-Menten constant (Kt) at a concentration of 24 uM
For series [3] the target is unchanged. The note with it: 60 uM.
Description: [14C]- AA uptake mediated by sodium-dependent ascorbate transporters, SVCT2 measured as Michaelis-Menten constant (Kt) at a concentration of 60 uM
Series [4] has the same target. Conditions: 12 uM.
Description: [14C]- AA uptake mediated by sodium-dependent ascorbate transporters, SVCT2 measured as Michaelis-Menten constant (Kt) at a concentration of 12 uM
Series [5] shares this target. Conditions: 120 uM.
Description: [14C]- AA uptake mediated by sodium-dependent ascorbate transporters, SVCT2 measured as Michaelis-Menten constant (Kt) at a concentration of 120 uM
Series [6] concerns O=C(O)Cc1ccccc1Nc1c(Cl)cccc1Cl. The note with it: 12 uM.
Description: ([14C]- AA) and its uptake mediated by sodium-dependent ascorbate transporters, SVCT2 measured as Maximum velocity (Vmax) at concentration of 12 uM
The test system of series [7] is O=C(O)Cc1ccccc1Nc1c(Cl)cccc1Cl. Conditions: 60 uM.
Description: ([14C]- AA) and its uptake mediated by sodium-dependent ascorbate transporters, SVCT2 measured as Maximum velocity (Vmax) at concentration of 60 uM
Series [8] relates to O=C(O)Cc1ccccc1Nc1c(Cl)cccc1Cl. Conditions: 24 uM.
Description: ([14C]- AA) and its uptake mediated by sodium-dependent ascorbate transporters, SVCT2 measured as Maximum velocity (Vmax) at concentration of 24 uM
For series [9], the system named is O=C(O)Cc1ccccc1Nc1c(Cl)cccc1Cl. Conditions: 120 uM.
Description: ([14C]- AA) and its uptake mediated by sodium-dependent ascorbate transporters, SVCT2 measured as Maximum velocity (Vmax) at concentration of 120 uM
Series [10] relates to O=C(O)Cc1ccccc1Nc1c(Cl)cccc1Cl. Conditions: 6 uM.
Description: ([14C]- AA) and its uptake mediated by sodium-dependent ascorbate transporters, SVCT2 measured as Maximum velocity (Vmax) at concentration of 6 uM

`O=C(O)Cc1ccccc1Nc1c(Cl)cccc1Cl`: the Kt in [1] was 32 µM; in [2] it was 31 µM; in series [3], 29 µM; in [4], 29 µM; in series [5], 28 µM.
Consider “Solute carrier family 23 member 2 (Homo sapiens), Q9UGH3”, for which the Vmax (nM hr-1 (10e6*cells)-1) stood at 2 in series [6]; 0.49 in [7]; 1.4 in [8]; 0.26 in [9]; 3.1 in [10].
